# PubChem BioAssay AID743396 (Broad Institute, 2014)
# The source made the active and inactive calls.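 How the source made its calls: active means fitted curve reaches a 40% rise in fluorescent cells at or below the top valid dose; inactive means opposite-direction effect, or the rest.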
# Assay: compound fluorescence in GFP channel, mTEFS cells – imaging, mTEFS fibroblasts, cherry-pick, artefact control for X-chromosome reactivation project, dose response (AID 743396);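 further: raw share of Hoechst-counted cells scored GFP positive without control normalization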
# Settings: mTEFS fibroblasts autofluorescence, GFP-channel imaging, 3 days; at 6.8 µM (top of the series); cells pretreated with 5-aza-dC
row,Compound,% fluorescent cells increase
1,CCN1/C(=C/c2ccc3cc(C)ccc3[n+]2CC)Sc2cc(C)c(C)cc21,27.9% (inactive)

# Same assay, conditions: mTEFS fibroblasts autofluorescence, GFP-channel imaging, 3 days; at 19.5 µM (top of the series); cells pretreated with 5-aza-dC
row,Compound,% fluorescent cells increase
1,CCOc1ccc(C(=O)c2cc([N+](=O)[O-])ccc2N2CCOCC2)cc1,0% (inactive)
2,CCCNNC(=O)C(O)(c1ccccc1)c1ccccc1,0.02% (inactive)
3,CCN(CC)CCCNC1=C(Cl)C(=O)c2ccccc2C1=O,-0.011% (inactive)
4,CN(C)CC(=O)N1CC2(C1)[C@@H](c1ccccc1)[C@H](CO)N2C(=O)C1CC1,-0.147% (inactive)
5,Nc1ccccc1C#CC(=O)c1ccccc1,0% (inactive)
6,COc1ccccc1N(C)c1cc2c(c3c1ccn3C)C1CCC2C1 (stereo not drawn),0.033% (inactive)
7,Cc1ccc(Nc2nc(N)nc(COC(=O)C3=COCCO3)n2)cc1,-0.007% (inactive)
8,C(CCCN1CCCCC1)CCN1CCCCC1,0.016% (inactive)
9,COc1cc(NS(=O)(=O)c2ccc3ccccc3c2)c2ncccc2c1,0% (inactive)
10,CC(C)n1c(NCc2cc(Cl)ccc2O)nc2ccccc21,-0.007% (inactive)
11,CN(C1CCCCC1)S(=O)(=O)c1ccc(C(=O)N2CCN(c3nc4ccccc4s3)CC2)cc1,-0.007% (inactive)
12,CCCn1c(SCC(=O)NCc2ccc(C)cc2)n[nH]c1=O,-0.007% (inactive)
13,Cc1ccc(-c2csc3nc4c5ccccc5c(NCCCN(C)C)nn4c(=O)c23)cc1,0% (inactive)
14,COc1ccc(OC)c(NC(=O)Nc2ccc3[nH]ccc3c2)c1,0% (inactive)
15,CSc1ccc(CNCC2CCCO2)cc1 (stereo not drawn),0.293% (inactive)
16,O=C1CCCC(O)=C1Sc1cc(Cl)c(Cl)cc1Cl,0% (inactive)
17,S=C(NCc1ccco1)Nc1cccc(Cl)c1Cl,0.083% (inactive)
18,C[C@@H]1CN(C)C(=O)Cc2cc(N(C)C)ccc2O[C@@H]1CN(C)S(C)(=O)=O,0.125% (inactive)
19,CCC(C(=O)Nc1cc(OC)c(NC(=O)c2ccccc2)cc1OC)c1ccccc1 (stereo not drawn),0.022% (inactive)
20,CCC(=O)OCCNc1cc(Sc2nc3ccccc3[nH]2)c2nonc2c1[N+](=O)[O-],-0.003% (inactive)
21,COc1ccccc1NC(=O)N[C@H]1C=C[C@@H](CC(=O)N[C@@H](C)c2ccccc2)O[C@@H]1CO,0.342% (inactive)

row,Compound,% fluorescent cells increase
1,CCOc1cccc(/C=N/NC(=S)Nc2cc(S(=O)(=O)N3CCOCC3)ccc2N2CCOCC2)c1O,0% (inactive)
2,CC(C)(C=O)C1=CC(=O)c2ccccc2C1=O,0% (inactive)
3,CCCCOc1nc2ccccc2nc1NS(=O)(=O)c1ccc(F)cc1,0% (inactive)
4,COc1ccc2c(c1)c(/C=N/Nc1nc3ccccc3[nH]1)c(C)n2C,3.71% (inactive)
5,CCOc1ccc(C(Nc2cccnc2)c2cc(Cl)c3cccnc3c2O)cc1 (stereo not drawn),0% (inactive)
6,CC(=O)N/C(N)=N/c1nc(=O)c2ccccc2s1,0.24% (inactive)
7,Cc1ccc(NCc2nnc(SCC(=O)NNC(=O)Cc3ccccc3)n2C)cc1,0.009% (inactive)
8,C[C@H](NC(=O)C[C@@H]1CC[C@H](NC(=O)Cc2ccccn2)[C@@H](CO)O1)c1ccccc1,0.048% (inactive)
9,Cc1noc(C)c1NC(=O)N[C@H]1CC[C@H](CC(=O)N2CCN(C)CC2)O[C@H]1CO,0.024% (inactive)
10,COc1ccccc1C#Cc1ccc2c(c1)O[C@H](CN(C)Cc1cncnc1)[C@@H](C)CN([C@H](C)CO)S2(=O)=O,0% (inactive)
11,CCN(CC)c1ccc(N=Cc2ccc([N+](=O)[O-])o2)cc1,0.026% (inactive)
12,CC(=O)C1=NN(c2ccc(Cl)cc2)C(c2ccc3c(c2)OCO3)N(C(C)=O)N1C (stereo not drawn),-0.011% (inactive)
13,O=C(c1ccc(S(=O)(=O)c2ccc(Cl)cc2)cc1)N1CCOCC1,0.948% (inactive)
14,COc1ccc(-n2c(=O)n(Cc3ccccc3)c(=O)c3[nH]cnc32)cc1,0.008% (inactive)
15,COc1ccc(NC(=O)C(C)N2C(=O)c3ccccc3C2=O)c(OC)c1 (stereo not drawn),0.081% (inactive)
16,Cc1ccc(C(=O)NCc2ccccn2)cc1NC1=NC2CS(=O)(=O)CC2S1 (stereo not drawn),0.061% (inactive)
17,Cc1ccc(S(=O)(=O)N2CCN(C(=O)COC(=O)c3ccccc3OC(F)F)CC2)c(C)c1,0% (inactive)
18,COc1ccc(Cc2c(O)nc(SCC(=O)NC34CC5CC(CC(C5)C3)C4)[nH]c2=O)cc1,0.014% (inactive)
19,CCOC(=O)c1ccc(NC(=O)C2(N3C(=O)c4ccccc4C3=O)CCCC2)cc1,0.495% (inactive)
20,CS(=O)(=O)c1ccc(S(=O)CC(=O)OCc2ccccc2)c([N+](=O)[O-])c1 (stereo not drawn),0% (inactive)
21,Cc1ccccc1C1c2[nH]c3ccccc3c2CCN1Cc1cccn1-c1ncccn1 (stereo not drawn),0.002% (inactive)

row,Compound,% fluorescent cells increase
1,CNc1ccc([N+](=O)[O-])cc1C(=O)O,-0.007% (inactive)
2,COCCN(C(=O)c1ccc2c(c1)C(=O)N(c1ccccc1Cl)C2=O)c1c(N)n(CC(C)C)c(=O)[nH]c1=O,1.41% (inactive)
3,O=c1[nH]nc(SCCS(=O)(=O)c2ccc(F)cc2)n1-c1ccccc1C(F)(F)F,-0.004% (inactive)
4,CCCC(=O)OCCNc1cc(Sc2nccn2C)c2nonc2c1[N+](=O)[O-],0% (inactive)
5,CCOC(=O)c1ccc(NC(=O)c2ccnn2C)cc1,0% (inactive)
6,Cc1ccc2[nH]c(C(=O)O)c(NC(=O)[C@@H]3C[C@@H]3c3ccccc3)c2c1,0.266% (inactive)
7,COc1ccc2nc(SCC(=O)Nc3ccccc3OC)[nH]c2c1,0.385% (inactive)
8,COc1ccc(CN(C)Cc2nc(Cc3ccccc3Cl)no2)cc1OC,0.025% (inactive)
9,CN1CCN(S(=O)(=O)c2ccc(C#N)cc2)C(c2ccccc2)C1 (stereo not drawn),0% (inactive)
10,COc1cc(/C=C/c2ccc3cccc(O)c3n2)ccc1O,0% (inactive)
11,O=[N+]([O-])/C=C/c1ccc2c(ccn2Cc2ccccc2)c1,0% (inactive)
12,N=c1ccn2c(n1)OC1C(O)C(CO)OC12 (stereo not drawn),-0.006% (inactive)
13,CN(C)CCN(C(=O)c1ccc(S(=O)(=O)N(C)c2ccccc2)cc1)c1nc2cc3c(cc2s1)OCCO3,0% (inactive)
14,COc1ccc(NC(=O)N(C)[C@H]2C[C@H]3c4[nH]c5ccc(-c6ccc(OC)cc6)cc5c4CCN3C(=O)[C@H]2[C@H](C)O)cc1,0.507% (inactive)
15,C[C@@H]1CN([C@@H](C)CO)S(=O)(=O)c2ccc(C#CC3CC3)cc2O[C@H]1CN(C)Cc1ccc(F)cc1,0.107% (inactive)
16,Cc1nnc(-c2ccc(N3CCCCCC3)c([N+](=O)[O-])c2)o1,0% (inactive)
17,O=C(O)c1ccccc1CSc1nc2ccccc2n1Cc1ccccc1C(=O)O,0.253% (inactive)
18,C[C@@H]1CN([C@@H](C)CO)C(=O)c2cc(NS(=O)(=O)c3cn(C)cn3)ccc2O[C@@H](C)CCCCO[C@H]1CN(C)C(=O)c1ccccc1,0% (inactive)
19,CCOC(=O)Cn1c(=NC(=O)c2ccc([N+](=O)[O-])s2)sc2ccccc21,12% (inactive)
20,O=C(N/N=C/c1ccc(Br)s1)c1ccc([N+](=O)[O-])cc1,-0.007% (inactive)
21,C[C@@H]1CN([C@@H](C)CO)C(=O)c2cc(NS(=O)(=O)c3ccccc3)ccc2O[C@@H](C)CCCCO[C@@H]1CN(C)Cc1ccc2c(c1)OCO2,0% (inactive)

row,Compound,% fluorescent cells increase
1,O=C(CCl)N=c1sccn1Cc1cccc2ccccc12,9.31% (inactive)
2,CC(C)NC(=O)N(C)C[C@@H]1OCCCC[C@H](C)Oc2ccc(NC(=O)Nc3ccc(C(F)(F)F)cc3)cc2C(=O)N([C@H](C)CO)C[C@@H]1C,0% (inactive)
3,OC[C@@H]1Nc2ccc(C#Cc3ccccc3)cc2[C@H]2[C@@H]1CCN2Cc1nccs1,0.018% (inactive)
4,CN(C)/C=C1\C=C2C(=O)c3ccccc3N2C1=O,0.092% (inactive)
5,COc1cc(/C=C2\SC(=S)N(N3CCOCC3)C2=O)cc(OC)c1OC,-0.007% (inactive)
6,Cc1cc(C(=O)NCc2cc(F)cc3c2OCOC3)nn1C,-0.003% (inactive)
7,Cc1ccc(S(=O)(=O)NN2C(=O)/C(=C/c3ccccn3)SC2=S)cc1,0.042% (inactive)
8,CCc1nc(C)cn1S(=O)(=O)c1ccc([N+](=O)[O-])cc1,0.011% (inactive)
9,Cc1cc(C(=O)Nc2ccc(Cl)c(S(=O)(=O)N3CCOCC3)c2)c2ccccc2n1,0.116% (inactive)
10,COc1ccc(NC(=O)Nc2ccc3c(c2)CC(=O)N([C@H](C)CO)C[C@H](C)[C@@H](CN(C)S(=O)(=O)c2ccc(F)cc2)O3)cc1,2.89% (inactive)
11,Cn1c(NC(=O)c2ccc(F)cc2)c(-c2ccccn2)c(=O)c2ccccc21,0.007% (inactive)
12,F[B-](F)(F)c1cnc2ccccc2c1,0.137% (inactive)
13,C[C@@H]1CN([C@@H](C)CO)C(=O)c2cc(NS(C)(=O)=O)ccc2O[C@@H](C)CCCCO[C@@H]1CN(C)Cc1ccccc1,0.259% (inactive)
14,COCCCn1c(C)cc(C(=O)COC(=O)CCc2nc3ccccc3c(=O)[nH]2)c1C,3.52% (inactive)
15,COc1ccc(NS(=O)(=O)c2ccc(NC(C)=O)cc2)nn1,-0.003% (inactive)
16,CCc1ccccc1OCC(=O)Nc1ccc(N2CCCC2)cc1C,0.096% (inactive)
17,O=C(Nc1c(F)cccc1F)C(c1ccccc1)c1ccccc1,0.034% (inactive)
18,CC(=Nc1ccc(Cl)cc1N)c1c(O)cc(C)oc1=O,0.643% (inactive)

# Same assay, conditions: mTEFS fibroblasts autofluorescence, GFP-channel imaging, 3 days; at 21 µM (top of the series); cells pretreated with 5-aza-dC
row,Compound,% fluorescent cells increase
1,COc1ccc(S(=O)(=O)N(C)C[C@@H]2OCc3cn(nn3)CCCC(=O)N([C@@H](C)CO)C[C@@H]2C)cc1,0.036% (inactive)
